Laboratory results from patent publication US20100311714A1, “1H-IMIDAZO[4,5-c]QUINOLINONE COMPOUNDS” (priority 2009, published 2010).
Read-outs that look alike come from different tables or passages of the source.

How the values were obtained:
mTOR = biological target: T1, mTOR (Homo sapiens, UniProt P42345); assay: Biochemical assay for m-TOR by TR-FRET
T1 construct: purchased Invitrogen Corporation (Carlsbad/Calif., USA) PV4753
In short: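 mTOR (0.5 nM) phosphorylates GFP-4EBP1 (400 nM) with 8 μM ATP at rt in 50 mM HEPES pH 7.5, 10 mM MnCl2, 50 mM NaCl, 1 mM EGTA, 1 mM DTT; compounds 0.003–10 μM final. EDTA stop with Tb-anti-p4EBP1[pT46] antibody (0.5 nM); TR-FRET read after 15 min against no-enzyme and vehicle controls.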

PI3K delta = biological target: T2, PI3K delta (Homo sapiens, UniProt O00329); assay: PI3K delta kinase assay (Kinase-Glo luminescence); assay type: biochemical
T2 construct: for the full-length p110-d subunit are generated and fused by overlapping PCR; His tag (C); made in house; host or cells: baculovirus BV1060; Tn5 (Trichoplusia ni) or TiniPro insect cells
T2 sequence (O00329 with tags, fused parts or gaps limits assumed): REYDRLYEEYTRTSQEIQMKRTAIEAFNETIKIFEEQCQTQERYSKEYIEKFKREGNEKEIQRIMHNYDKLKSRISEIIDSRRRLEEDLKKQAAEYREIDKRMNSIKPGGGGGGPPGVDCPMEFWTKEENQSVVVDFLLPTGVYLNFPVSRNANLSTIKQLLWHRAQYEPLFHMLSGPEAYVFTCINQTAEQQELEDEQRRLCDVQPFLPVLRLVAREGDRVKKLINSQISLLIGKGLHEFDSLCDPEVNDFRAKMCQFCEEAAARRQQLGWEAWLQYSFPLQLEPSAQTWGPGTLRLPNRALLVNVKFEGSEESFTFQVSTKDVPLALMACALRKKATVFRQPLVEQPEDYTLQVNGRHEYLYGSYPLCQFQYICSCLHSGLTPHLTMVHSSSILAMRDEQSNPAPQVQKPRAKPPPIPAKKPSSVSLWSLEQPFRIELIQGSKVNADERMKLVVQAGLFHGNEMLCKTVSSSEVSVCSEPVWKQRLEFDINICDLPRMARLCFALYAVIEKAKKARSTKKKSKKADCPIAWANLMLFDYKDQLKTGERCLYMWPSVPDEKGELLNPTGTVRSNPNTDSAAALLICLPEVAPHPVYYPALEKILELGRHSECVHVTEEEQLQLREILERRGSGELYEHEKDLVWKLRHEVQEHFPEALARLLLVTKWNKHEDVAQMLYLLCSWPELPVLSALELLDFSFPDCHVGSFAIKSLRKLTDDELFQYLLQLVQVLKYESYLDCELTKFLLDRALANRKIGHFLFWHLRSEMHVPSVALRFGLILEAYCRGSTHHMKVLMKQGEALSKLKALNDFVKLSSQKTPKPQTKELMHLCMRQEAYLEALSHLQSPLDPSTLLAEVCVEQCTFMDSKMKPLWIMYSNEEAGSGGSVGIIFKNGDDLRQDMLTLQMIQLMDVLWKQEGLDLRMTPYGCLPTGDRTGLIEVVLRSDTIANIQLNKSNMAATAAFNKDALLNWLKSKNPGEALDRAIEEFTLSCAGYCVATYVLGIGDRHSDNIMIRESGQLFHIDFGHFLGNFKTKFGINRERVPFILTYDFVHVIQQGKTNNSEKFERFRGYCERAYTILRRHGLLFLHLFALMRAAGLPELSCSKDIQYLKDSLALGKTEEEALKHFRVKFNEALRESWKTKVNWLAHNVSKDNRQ
In short: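 Kinase-Glo ATP-depletion luminescence using 10 nM p85(iSH2)-linker-p110δ full-length His-tag construct from insect cells, with 1 μM ATP and 10 μg/mL phosphatidylinositol in 10 mM Tris pH 7.5, 3 mM MgCl2, 50 mM NaCl, 0.05% CHAPS, 1 mM DTT. 60 min room temperature; IC50 from 4-parameter logistic fit over 8 concentrations.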

T1 sequence (P42345 1360-2549 limits assumed): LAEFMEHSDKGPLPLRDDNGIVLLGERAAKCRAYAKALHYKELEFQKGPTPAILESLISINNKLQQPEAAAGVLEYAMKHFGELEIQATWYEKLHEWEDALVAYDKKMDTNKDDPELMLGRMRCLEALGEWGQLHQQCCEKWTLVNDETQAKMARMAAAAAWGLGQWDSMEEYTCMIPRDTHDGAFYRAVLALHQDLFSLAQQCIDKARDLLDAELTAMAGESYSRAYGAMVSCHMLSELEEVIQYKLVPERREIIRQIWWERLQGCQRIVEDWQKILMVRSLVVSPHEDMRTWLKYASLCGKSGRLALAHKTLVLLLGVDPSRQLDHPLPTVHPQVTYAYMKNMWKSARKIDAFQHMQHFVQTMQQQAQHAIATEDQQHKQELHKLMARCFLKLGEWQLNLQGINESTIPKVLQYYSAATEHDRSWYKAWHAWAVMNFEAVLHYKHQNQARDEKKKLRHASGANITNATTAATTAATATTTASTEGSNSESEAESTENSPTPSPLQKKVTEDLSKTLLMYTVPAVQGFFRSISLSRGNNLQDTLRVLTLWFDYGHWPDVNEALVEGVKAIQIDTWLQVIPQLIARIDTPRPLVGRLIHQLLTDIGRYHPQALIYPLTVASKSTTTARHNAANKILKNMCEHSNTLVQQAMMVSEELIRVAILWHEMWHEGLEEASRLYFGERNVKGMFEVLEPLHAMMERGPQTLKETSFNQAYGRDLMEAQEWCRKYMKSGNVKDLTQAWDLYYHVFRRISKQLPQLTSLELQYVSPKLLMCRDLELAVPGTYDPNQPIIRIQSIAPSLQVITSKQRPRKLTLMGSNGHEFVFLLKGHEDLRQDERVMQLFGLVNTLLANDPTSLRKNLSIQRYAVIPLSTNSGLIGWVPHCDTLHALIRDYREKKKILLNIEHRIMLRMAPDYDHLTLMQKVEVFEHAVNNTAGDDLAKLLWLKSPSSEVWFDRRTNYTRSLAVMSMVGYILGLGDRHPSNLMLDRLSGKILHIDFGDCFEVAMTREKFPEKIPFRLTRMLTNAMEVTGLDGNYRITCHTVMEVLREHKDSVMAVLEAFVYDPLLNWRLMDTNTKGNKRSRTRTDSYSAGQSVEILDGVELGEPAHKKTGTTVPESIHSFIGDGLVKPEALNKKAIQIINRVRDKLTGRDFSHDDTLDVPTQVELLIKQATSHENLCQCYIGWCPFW

SMILES | IC50 (mTOR; read-out: EPK_mTOR/IC50) [nM] | IC50 (PI3K delta; read-out: EPK_PI3Kdelta/IC50) [nM] | IC50 (mTOR; read-out: mTOR/IC50) [nM] | IC50 (PI3K delta; read-out: PI3Kdelta/IC50) [nM]
COc1ccc(-c2ccc3ncc4c(c3c2)n(-c2cnccc2C)c(=O)n4C)cn1 [Example 4.3, 8-(6-Methoxy-pyridin-3-yl)-3-methyl-1-(4-methyl-pyridin-3-yl)-1,3-dihydro-imidazo[4,5-c]quinolin-2-one] |  |  | 442 | 120
CCOc1ccc(-c2ccc3ncc4c(c3c2)n(-c2cccnc2F)c(=O)n4C)cn1 [Example 6.1, 8-(6-Ethoxy-pyridin-3-yl)-1-(2-fluoro-pyridin-3-yl)-3-methyl-1,3-dihydro-imidazo[4,5-c]quinolin-2-one] |  |  | 107 | 64
COc1cc(-c2ccc3ncc4c(c3c2)n(-c2cccnc2C)c(=O)n4C)cnc1C(OC)OC [Example 2.27, 8-(6-Dimethoxymethyl-5-methoxy-pyridin-3-yl)-3-methyl-1-(2-methyl-pyridin-3-yl)-1,3-dihydro-imidazo[4,5-c]quinolin-2-one] | 169 | 406 |  | 
CCNc1cc(-c2ccc3ncc4c(c3c2)n(-c2cccnc2C)c(=O)n4C)cnc1CO [Example 2.31, 8-(5-Ethylamino-6-hydroxymethyl-pyridin-3-yl)-3-methyl-1-(2-methyl-pyridin-3-yl)-1,3-dihydro-imidazo[4,5-c]quinolin-2-one] | < 3 | 25 |  | 
Cc1ncccc1-n1c(=O)n(C)c2cnc3ccc(-c4cnc(N(C)C)nc4)cc3c21 [Example 2.15, 8-(2-Dimethylamino-pyrimidin-5-yl)-3-methyl-1-(2-methyl-pyridin-3-yl)-1,3-dihydro-imidazo[4,5-c]quinolin-2-one] |  |  | 53 | 32
CN(C)c1ccc(-c2ccc3ncc4c(c3c2)n(-c2cccnc2)c(=O)n4C)cn1 [Example 5.3, 8-(6-Dimethylamino-pyridin-3-yl)-3-methyl-1-pyridin-3-yl-1,3-dihydro-imidazo[4,5-c]quinolin-2-one] |  |  | 253 | 193
CNc1cc(-c2ccc3ncc4c(c3c2)n(-c2cccnc2C)c(=O)n4C)cnc1C [Example 2.32, 3-Methyl-8-(6-methyl-5-methylamino-pyridin-3-yl)-1-(2-methyl-pyridin-3-yl)-1,3-dihydro-imidazo[4,5-c]quinolin-2-one] | 7 | 31 |  | 
Cc1nc(C(C)(C)O)ccc1-n1c(=O)n(C)c2cnc3ccc(-c4cncc(C(C)(C)C#N)c4)cc3c21 [Example 31.6, 2-(5-{1-[6-(1-Hydroxy-1-methyl-ethyl)-2-methyl-pyridin-3-yl]-3-methyl-2-oxo-2,3-dihydro-1H-imidazo[4,5-c]quinolin-8-yl}-pyridin-3-yl)-2-methyl-propionitrile] | 95 | 7 |  | 
CCOc1cc(-c2ccc3ncc4c(c3c2)n(-c2ccc(OCCOC)nc2C)c(=O)n4C)cnc1COC [Example 22.1, 8-(5-Ethoxy-6-methoxymethyl-pyridin-3-yl)-1-[6-(2-methoxy-ethoxy)-2-methyl-pyridin-3-yl]-3-methyl-1,3-dihydro-imidazo[4,5-c]quinolin-2-one] | 98 | 60 |  | 
Cn1c(=O)n(-c2cccnc2)c2c3cc(-c4ccc(CO)nc4)ccc3ncc21 [Example 5.1, 8-(6-Hydroxymethyl-pyridin-3-yl)-3-methyl-1-pyridin-3-yl-1,3-dihydro-imidazo[4,5-c]quinolin-2-one] |  |  | 351 | 88
Cc1nc(N(C)CCO)ccc1-n1c(=O)n(C)c2cnc3ccc(-c4cnc(N)c(C(F)(F)F)c4)cc3c21 [Example 26.1, 8-(6-Amino-5-trifluoromethyl-pyridin-3-yl)-1-{6-[(2-hydroxy-ethyl)-methyl-amino]-2-methyl-pyridin-3-yl}-3-methyl-1,3-dihydro-imidazo[4,5-c]quinolin-2-one] | < 6 | < 3 |  | 
CCOc1cc(-c2ccc3ncc4c(c3c2)n(-c2ccc(F)nc2C)c(=O)n4C)cnc1COC [Example 7.5, 8-(5-Ethoxy-6-methoxymethyl-pyridin-3-yl)-1-(6-fluoro-2-methyl-pyridin-3-yl)-3-methyl-1,3-dihydro-imidazo[4,5-c]quinolin-2-one] | 88 | 78 |  | 
CCOc1ccc(-c2ccc3ncc4c(c3c2)n(-c2ccc(F)nc2C)c(=O)n4C)cn1 [Example 7.3, 8-(6-Ethoxy-pyridin-3-yl)-1-(6-fluoro-2-methyl-pyridin-3-yl)-3-methyl-1,3-dihydro-imidazo[4,5-c]quinolin-2-one] |  |  | 59 | 71

More lines, now with the values ahead:

IC50 (mTOR; read-out: EPK_mTOR/IC50) [nM] | IC50 (PI3K delta; read-out: EPK_PI3Kdelta/IC50) [nM] | IC50 (mTOR; read-out: mTOR/IC50) [nM] | IC50 (PI3K delta; read-out: PI3Kdelta/IC50) [nM] | SMILES
6 | 55 |  |  | CNc1ncc(-c2ccc3ncc4c(c3c2)n(-c2ccc(N3CCC(O)C3)nc2C)c(=O)n4C)cn1 (centres unmarked) [Example 27.2, 1-[6-(3-Hydroxy-pyrrolidin-1-yl)-2-methyl-pyridin-3-yl]-3-methyl-8-(2-methylamino-pyrimidin-5-yl)-1,3-dihydro-imidazo[4,5-c]quinolin-2-one]
11 | 10 |  |  | COc1ncc(-c2ccc3ncc4c(c3c2)n(-c2ccc(N3CC(O)C3)nc2C)c(=O)n4C)c(OC)n1 [Example 29.6, 8-(2,4-Dimethoxy-pyrimidin-5-yl)-1-[6-(3-hydroxy-azetidin-1-yl)-2-methyl-pyridin-3-yl]-3-methyl-1,3-dihydro-imidazo[4,5-c]quinolin-2-one]
25 | 25 |  |  | CCOc1cc(-c2ccc3ncc4c(c3c2)n(-c2ccc(N3CCC3)nc2C)c(=O)n4C)cnc1COC [Example 23.5, 1-(6-Azetidin-1-yl-2-methyl-pyridin-3-yl)-8-(5-ethoxy-6-methoxymethyl-pyridin-3-yl)-3-methyl-1,3-dihydro-imidazo[4,5-c]quinolin-2-one]
9 | 4 |  |  | CNc1ncc(-c2ccc3ncc4c(c3c2)n(-c2ccc(N3CC[C@H](O)C3)nc2C)c(=O)n4C)cc1C(F)(F)F [Example 32.5, 1-[6-((S)-3-Hydroxy-pyrrolidin-1-yl)-2-methyl-pyridin-3-yl]-3-methyl-8-(6-methylamino-5-trifluoromethyl-pyridin-3-yl)-1,3-dihydro-imidazo[4,5-c]quinolin-2-one]
12 | < 3 |  |  | Cc1nc(N2CCCC2)ccc1-n1c(=O)n(C)c2cnc3ccc(-c4cncc(C(C)(C)O)c4)cc3c21 [Example 25.3, 8-[5-(1-Hydroxy-1-methyl-ethyl)-pyridin-3-yl]-3-methyl-1-(2-methyl-6-pyrrolidin-1-yl-pyridin-3-yl)-1,3-dihydro-imidazo[4,5-c]quinolin-2-one]
44 | 31 |  |  | COCc1ncc(-c2ccc3ncc4c(c3c2)n(-c2ccc(N3CCC3)nc2C)c(=O)n4C)cc1OC(C)C [Example 23.2, 1-(6-Azetidin-1-yl-2-methyl-pyridin-3-yl)-8-(5-isopropoxy-6-methoxymethyl-pyridin-3-yl)-3-methyl-1,3-dihydro-imidazo[4,5-c]quinolin-2-one]
22 | 59 |  |  | COC1CCN(c2ccc(-n3c(=O)n(C)c4cnc5ccc(-c6cncc(C(C)(C)O)c6)cc5c43)c(C)n2)C1 (centres unmarked) [Example 28.1, 8-[5-(1-Hydroxy-1-methyl-ethyl)-pyridin-3-yl]-1-[6-(3-methoxy-pyrrolidin-1-yl)-2-methyl-pyridin-3-yl]-3-methyl-1,3-dihydro-imidazo[4,5-c]quinolin-2-one]
10 | 36 |  |  | CNc1ncc(-c2ccc3ncc4c(c3c2)n(-c2ccc(N3CC[C@H](O)C3)nc2C)c(=O)n4C)cc1F [Example 32.2, 8-(5-Fluoro-6-methylamino-pyridin-3-yl)-1-[6-((S)-3-hydroxy-pyrrolidin-1-yl)-2-methyl-pyridin-3-yl]-3-methyl-1,3-dihydro-imidazo[4,5-c]quinolin-2-one]
214 | 26 |  |  | CCNc1ncc(-c2ccc3ncc4c(c3c2)n(-c2ccc(N3CC[C@@H](O)C3)nc2C)c(=O)n4C)cc1COCC [Example 34.4, 8-(5-Ethoxymethyl-6-ethylamino-pyridin-3-yl)-1-[6-((R)-3-hydroxy-pyrrolidin-1-yl)-2-methyl-pyridin-3-yl]-3-methyl-1,3-dihydro-imidazo[4,5-c]quinolin-2-one]
42.5 | 39 |  |  | Cc1nc(N2CC[C@H](O)C2)ccc1-n1c(=O)n(C)c2cnc3ccc(-c4cncc(OC(C)C)c4)cc3c21 [Example 32.8, 1-[6-((S)-3-Hydroxy-pyrrolidin-1-yl)-2-methyl-pyridin-3-yl]-8-(5-isopropoxy-pyridin-3-yl)-3-methyl-1,3-dihydro-imidazo[4,5-c]quinolin-2-one]
36 | 12 |  |  | CCNc1ncc(-c2ccc3ncc4c(c3c2)n(-c2ccc(N3CC[C@@H](O)C3)nc2C)c(=O)n4C)cc1C(F)(F)F [Example 34.2, 8-(6-Ethylamino-5-trifluoromethyl-pyridin-3-yl)-1-[6-((R)-3-hydroxy-pyrrolidin-1-yl)-2-methyl-pyridin-3-yl]-3-methyl-1,3-dihydro-imidazo[4,5-c]quinolin-2-one]
12 | 13 |  |  | CNc1ncc(-c2ccc3ncc4c(c3c2)n(-c2ccc(N3CC(O)C3)nc2C)c(=O)n4C)cc1C(F)(F)F [Example 29.4, 1-[6-(3-Hydroxy-azetidin-1-yl)-2-methyl-pyridin-3-yl]-3-methyl-8-(6-methylamino-5-trifluoromethyl-pyridin-3-yl)-1,3-dihydro-imidazo[4,5-c]quinolin-2-one]
